Laboratory results reported in the NIST ThermoML archive (doi:10.1021/je200811n).

Conditions: Liquid, Hot wire method

F/C=C/C(F)(F)F [trans-1,3,3,3-tetrafluoropropene]
Conditions | thermal conductivity [W/m/K]
203.15 K | 0.1101
213.15 K | 0.1064
223.15 K | 0.1024
233.15 K | 0.0984

Conditions | thermal conductivity [W/m/K]
203.18 K, 711 kPa | 0.1106
203.18 K, 5522 kPa | 0.1124
203.18 K, 10459 kPa | 0.114
203.18 K, 15332 kPa | 0.1155
203.18 K, 20782 kPa | 0.1173
203.28 K, 739 kPa | 0.1103
203.28 K, 5531 kPa | 0.112
203.28 K, 10473 kPa | 0.1137
203.29 K, 15354 kPa | 0.1152
203.29 K, 20780 kPa | 0.1169
203.54 K, 5526 kPa | 0.1122
203.54 K, 10469 kPa | 0.1137
203.55 K, 747 kPa | 0.1104
203.55 K, 15371 kPa | 0.1153
203.56 K, 20781 kPa | 0.1169
203.67 K, 5527 kPa | 0.1118
203.67 K, 10483 kPa | 0.1135
203.67 K, 15392 kPa | 0.1149
203.67 K, 20820 kPa | 0.1167
203.68 K, 729 kPa | 0.11
203.94 K, 20822 kPa | 0.1168
203.95 K, 15357 kPa | 0.1149
203.96 K, 5536 kPa | 0.1119
203.96 K, 10470 kPa | 0.1136
203.97 K, 733 kPa | 0.1102
204.1 K, 15343 kPa | 0.1146
204.1 K, 20832 kPa | 0.1164
204.11 K, 5538 kPa | 0.1115
204.11 K, 10474 kPa | 0.1133
204.12 K, 727 kPa | 0.1098
204.38 K, 20839 kPa | 0.1166
204.39 K, 15379 kPa | 0.1146
204.4 K, 10465 kPa | 0.1133
204.41 K, 5532 kPa | 0.1118
204.42 K, 727 kPa | 0.11
204.56 K, 15381 kPa | 0.1145
204.56 K, 20849 kPa | 0.1163
204.57 K, 10473 kPa | 0.113
204.59 K, 5544 kPa | 0.1114
204.62 K, 736 kPa | 0.1094
204.85 K, 20860 kPa | 0.1164
204.87 K, 15409 kPa | 0.1147
204.88 K, 10437 kPa | 0.1131
204.9 K, 5524 kPa | 0.1115
204.92 K, 744 kPa | 0.1095
205.05 K, 20874 kPa | 0.116
205.06 K, 15407 kPa | 0.1143
205.09 K, 10456 kPa | 0.1127
205.1 K, 5515 kPa | 0.1111
205.13 K, 719 kPa | 0.1088
221.66 K, 461 kPa | 0.1031
221.67 K, 5469 kPa | 0.1047
221.74 K, 21449 kPa | 0.1111
221.76 K, 463 kPa | 0.1036
221.76 K, 5431 kPa | 0.1048
221.76 K, 10410 kPa | 0.1068
221.76 K, 15721 kPa | 0.1089
221.84 K, 21448 kPa | 0.1108
221.86 K, 15726 kPa | 0.1087
221.88 K, 10573 kPa | 0.1069
222.06 K, 464 kPa | 0.1022
222.06 K, 10416 kPa | 0.1071
222.08 K, 5404 kPa | 0.1049
222.12 K, 21441 kPa | 0.1109
222.15 K, 15723 kPa | 0.1088
222.18 K, 10370 kPa | 0.1067
222.19 K, 465 kPa | 0.103
222.19 K, 5436 kPa | 0.1046
222.24 K, 21442 kPa | 0.1106
222.27 K, 15726 kPa | 0.1085
222.3 K, 10660 kPa | 0.1066
222.49 K, 10407 kPa | 0.1072
222.5 K, 470 kPa | 0.1023
222.5 K, 5467 kPa | 0.105
222.5 K, 10293 kPa | 0.1066
222.54 K, 21423 kPa | 0.1106
222.57 K, 15731 kPa | 0.1085
222.64 K, 10411 kPa | 0.1065
222.65 K, 468 kPa | 0.1027
222.65 K, 5467 kPa | 0.1046
222.68 K, 21432 kPa | 0.1103
222.72 K, 15730 kPa | 0.1082
222.97 K, 10413 kPa | 0.1065
222.99 K, 5478 kPa | 0.1038
223 K, 470 kPa | 0.1026
223 K, 21446 kPa | 0.1104
223.04 K, 15727 kPa | 0.1083
223.15 K, 10394 kPa | 0.1061
223.16 K, 5476 kPa | 0.1042
223.18 K, 469 kPa | 0.1021
223.18 K, 21443 kPa | 0.11
223.22 K, 15728 kPa | 0.108
223.49 K, 10439 kPa | 0.1055
223.5 K, 21421 kPa | 0.1101
223.52 K, 5475 kPa | 0.105
223.55 K, 15715 kPa | 0.1081
223.7 K, 10408 kPa | 0.1058
223.71 K, 21432 kPa | 0.1098
223.73 K, 5485 kPa | 0.104
223.75 K, 474 kPa | 0.1022
223.76 K, 15729 kPa | 0.1077
241.49 K, 10379 kPa | 0.09991
241.51 K, 15379 kPa | 0.1018
241.52 K, 20702 kPa | 0.1042
241.53 K, 5318 kPa | 0.09771
241.56 K, 614 kPa | 0.09561
241.59 K, 10369 kPa | 0.0996
241.6 K, 15368 kPa | 0.1014
241.61 K, 20709 kPa | 0.1038
241.62 K, 5325 kPa | 0.09743
